# Earlier results in US20050244462A1, “Devices and methods for treating a mammalian eye” (Allergan, Inc., priority 2004, published 2005).
# Details: steroidal anti-inflammatory efficacy in vivo; 25 mg hydrocortisone equivalent to 1 mg dexamethasone; Goodman and Gilman 8th ed. p. 1447
structure (smiles),measurement,value
C[C@]12CCC(=O)C=C1CC[C@@H]1[C@@H]2[C@@H](O)C[C@@]2(C)[C@H]1CC[C@]2(O)C(=O)CO [hydrocortisone],potency relative to dexamethasone,approximately twentyfivefold less potent than dexamethasone
